Measurements as given in PMC7911516, “Investigation of the Factors Responsible for the Poor Oral Bioavailability of Acacetin in Rats: Physicochemical and Biopharmaceutical Aspects” (Pharmaceutics, 2021).
Values after ≈ are worked out from the molar mass of the structure shown. Where two headings read alike, the source gives them in different places.

Experiments:
[1] = Maximum absorbable dose (MAD) estimation; parameters: species or system rat; details: oral dose 100 mg/kg, from measured SIF solubility
From the text: The PAMPA permeability values of acacetin seem to lie approximately in the middle of those of verapamil and ranitidine. […]. Rats have been recognized as a good animal model for predicting the GI absorption of drugs, particularly via passive diffusion, in humans. As a GI absorption prediction model, the maximum absorbable dose (MAD) can estimate a theoretical dose of a drug that can be absorbed across rat intestine, using solubility, intestinal volume, residence time, and intestinal permeability. […] Thus, the SIF solubility of acacetin measured in the present study could not represent an actual solubility of acacetin when it is dispersed in the dosing vehicle and subsequently administered into the GI fluids, which could result in the under-estimation of MAD. Alternatively, an in silico estimate of acacetin solubility in water can be used for the calculation of MAD.

[2] = Blood-to-plasma concentration ratio; type: in vitro ADME; details: Sprague-Dawley, rat, 37 °C, read-out: RB (blood-to-plasma concentration ratio)
Method: The fractions of unbound acacetin in plasma (fuP), microsomes (fuMIC), SGF (fuSGF), and SIF(fuSIF) were measured using a rapid equilibrium dialysis device (Thermo Fisher Scientific, Inc., Waltham, MA, USA) as previously described with slight modifications. Briefly, 0.2 mL of the matrix spiked with acacetin (10 μM) was placed into the “sample” chamber, and 0.4 mL of PBS was placed into the adjacent “buffer” chamber. The fractions of unbound acacetin were calculated as the concentration ratio between the two chambers. The blood-to-plasma concentration ratio (RB) of acacetin was determined as described previously. Briefly, 1-mL blood spiked with acacetin (1 μM) was incubated at 37 °C for 30 min. The blood sample was centrifuged at 2000× g for 5 min to prepare the plasma sample. The concentrations of acacetin in the aforementioned plasma and buffer samples were measured using the LC-MS/MS method.

[3] = Equilibrium solubility in water, pH 7.4 phosphate buffer, SGF and SIF; type: physicochemical
Method: Simulated gastric fluid (SGF) consisted of 0.2% (w/v) sodium chloride, 0.32% (w/v) pepsin, and 0.7% (v/v) HCl (final pH = 1.2). Simulated intestinal fluid (SIF) was prepared by dissolving 3 mM sodium taurocholate and 0.1% (w/v) pancreatin in phosphate buffer (final pH = 7.0). The solubility of acacetin was measured by adding excessive amounts of acacetin into glass vials containing 1.5 mL of water, pH 7.4 phosphate buffer, SGF, and SIF. The mixtures were allowed to reach equilibrium in a shaking incubator (FINEPCR, Gyeonggi-do, South Korea) at 500 rpm at 37 °C for 48 h. The samples were centrifuged at 16,000× g for 5 min, and the supernatant was passed through a 0.20-μm syringe filter to remove excess acacetin. Further, the concentration of acacetin in the filtrate was determined using the LC-MS/MS method. The distribution coefficients of acacetin in water (log P) and pH 7.4 phosphate buffer (log D7.4) were determined using an octanol–water system at 25 ± 0.5 °C. The two phases were pre-saturated with each other by vigorous vortex-mixing for 15 min and further stabilized overnight for phase separation. A certain amount of acacetin (less than its solubility) was dissolved in the pre-saturated octanol, vortex mixed with the same volume of pre-saturated water for 1 h, shaken for 24 h, and further centrifuged at 16,000× g for 30 min. Finally, the acacetin concentrations in the octanol and water layers were determined using the LC-MS/MS method. The membrane permeability of acacetin and reference compounds (verapamil as a reference for high permeability and ranitidine as a reference for low permeability) was assessed by parallel artificial membrane permeability assay (PAMPA). The PAMPA was conducted using a commercially available PAMPA kit (GIT PAMPA Double Sink; pION Inc., Massachusetts, MA, USA) according to the manufacturer’s protocol. The permeability was calculated using pION PAMPA Explorer ver. 3.8 software (pION Inc., Massachusetts, MA, USA).

[4] = Stability in phosphate buffers, plasma, RLM, SGF and SIF; type: physicochemical; details: for Initially spiked amount remaining after 24 h: 10 μM
Method: The stability of acacetin was determined in several matrices such as phosphate buffers (pH 1.0, 3.0, 5.0, 7.0, 9.0, 11.0, and 13.0), plasma, RLM, SGF, and SIF. The samples spiked with acacetin (10 μM) were incubated at 37 °C, and 120 μL aliquots of the samples were collected at 0, 15, 30, 60, 120, 180, 240, 360, 420, 600, and 1440 min. The collected samples were diluted with acetonitrile to obtain a proper concentration and analyzed by the LC-MS/MS method.

[5] = parameters: method as in doi:10.5958/0974-360X.2019.00624.3; details: oral administration at 10 mg/kg; cited from earlier work

MAD as portion of the orally administered dose [1]: 0.00361%
blood plasma ratio at 30 min, 1 μM [2]: ~1
solubility at 48 h ([3]; aqueous buffer, thermodynamic from solid, pH 7.4 phosphate buffer, 37 °C, 48 h, read-out: Solubility, pH 7.4 phosphate buffer): 0.0121 ± 0.0011 µg/mL (≈ 0.0426 µM)
solubility at 48 h ([3]; fassgf or other biorelevant, thermodynamic from solid, SIF pH 7.0, 37 °C, 48 h, read-out: Solubility, SIF): 0.119 ± 0.008 µg/mL (≈ 0.419 µM)
solubility at 48 h ([3]; pH 7 phosphate buffer, SGF and SIF, pH 7, in abstract, read-out: Solubility in pH 7 phosphate buffer and simulated GI fluids): ≤ 0.119 µg/mL
solubility at 48 h ([3]; simulated gastric fluid, thermodynamic from solid, SGF pH 1.2, 37 °C, 48 h, read-out: Solubility, SGF): 0.0593 ± 0.0071 µg/mL (≈ 0.209 µM)
solubility at 48 h ([3]; thermodynamic from solid, water, 37 °C, 48 h, read-out: Solubility, Water): 0.0401 ± 0.0073 µg/mL (≈ 0.141 µM)
solubility at 48 h ([3]; water, pH 7.4 phosphate buffer, SGF and SIF, pH 7.4, upper bound over all four media, read-out: Solubility in water, pH 7.4 buffer, SGF, and SIF): ≤ 0.119 µg/mL
Stability (stable = more than 85% remaining) ([4]; SGF and SIF): unstable
Initially spiked amount remaining after 24 h ([4]; SGF and SIF, 37 °C): 27.5–62.0%
Stability (stable = more than 85% remaining) ([4]; acidic and neutral conditions (pH 1–7)): unstable
Stability (stable = more than 85% remaining) ([4]; basic conditions (pH 9, 11, 13)): stable
Remaining after 24 h ([4]; pH 7 phosphate buffer and simulated GI fluids (as worded in abstract)): 27.5–62.0%
Initially spiked amount remaining after 24 h ([4]; phosphate buffers, pH range 1–7, 37 °C): 16.1–35.9%
Stability (stable = more than 85% remaining) ([4]; plasma and RLM, absence of NADPH and UDPGA/alamethicin): stable
SMILES: COc1ccc(-c2cc(=O)c3c(O)cc(O)cc3o2)cc1 [acacetin, Acacetin]
Cmax [5]: 1668 ng/mL
bioavailability [5]: 84%
